{"source": "ChEMBL document CHEMBL1201861", "about": "“Genomics of Drug Sensitity in Cancer screening data, Wellcome Trust Sanger Institute”", "key": {"COLO-792": {"test_system": "COLO-792", "assay": "cells", "assay_type": "functional, cell-based, Homo sapiens", "details": "Homo sapiens, COLO-792", "description": "SANGER: Inhibition of human COLO-792 cell growth in a cell viability assay."}, "COR-L279": {"test_system": "COR-L279", "assay": "SANGER: Inhibition of human COR-L279 cell growth in a cell viability assay.", "assay_type": "functional, cell-based", "details": "Homo sapiens, COR-L279"}, "CPC-N": {"test_system": "CPC-N", "assay": "cells", "assay_type": "functional, cell-based, Homo sapiens", "details": "Homo sapiens, CPC-N", "description": "SANGER: Inhibition of human CPC-N cell growth in a cell viability assay."}, "ChaGo-K-1": {"test_system": "ChaGo-K-1", "assay": "cells", "assay_type": "functional, cell-based, Homo sapiens", "details": "Homo sapiens, ChaGo-K-1", "description": "SANGER: Inhibition of human ChaGo-K-1 cell growth in a cell viability assay."}, "DG-75": {"test_system": "DG-75", "assay": "cells", "assay_type": "functional, cell-based, Homo sapiens", "details": "Homo sapiens, DG-75", "description": "SANGER: Inhibition of human DG-75 cell growth in a cell viability assay."}, "EB2": {"test_system": "EB2", "assay": "cells", "assay_type": "functional, cell-based, Homo sapiens", "details": "Homo sapiens, EB2", "description": "SANGER: Inhibition of human EB2 cell growth in a cell viability assay."}, "G-361": {"test_system": "G-361", "assay": "cells", "assay_type": "functional, cell-based, Homo sapiens", "details": "Homo sapiens, G-361"}, "HCC1599": {"test_system": "HCC1599", "assay": "cells", "assay_type": "functional, cell-based, Homo sapiens", "details": "Homo sapiens, HCC1599", "description": "SANGER: Inhibition of human HCC1599 cell growth in a cell viability assay."}, "HT-29": {"test_system": "HT-29", "assay": "cells", "assay_type": "functional, cell-based, Homo sapiens", "details": "Homo sapiens, HT-29", "description": "SANGER: Inhibition of human HT-29 cell growth in a cell viability assay."}, "HT-3": {"test_system": "HT-3", "assay": "cells", "assay_type": "functional, cell-based, Homo sapiens", "details": "Homo sapiens, HT-3", "description": "SANGER: Inhibition of human HT-3 cell growth in a cell viability assay."}, "HT55": {"test_system": "HT55", "assay": "cells", "assay_type": "functional, cell-based, Homo sapiens", "details": "Homo sapiens, HT55", "description": "SANGER: Inhibition of human HT55 cell growth in a cell viability assay."}, "HuP-T4": {"test_system": "HuP-T4", "assay": "cells", "assay_type": "functional, cell-based, Homo sapiens", "details": "Homo sapiens, HuP-T4", "description": "SANGER: Inhibition of human HuP-T4 cell growth in a cell viability assay."}, "IGROV-1": {"test_system": "IGROV-1", "assay": "cells", "assay_type": "functional, cell-based, Homo sapiens", "details": "Homo sapiens, IGROV-1", "description": "SANGER: Inhibition of human IGROV-1 cell growth in a cell viability assay."}, "IM-9": {"test_system": "IM-9", "assay": "SANGER: Inhibition of human IM-9 cell growth in a cell viability assay.", "assay_type": "functional, cell-based", "details": "Homo sapiens, IM-9"}, "IST-SL2": {"test_system": "IST-SL2", "assay": "cells", "assay_type": "functional, cell-based, Homo sapiens", "details": "Homo sapiens, IST-SL2", "description": "SANGER: Inhibition of human IST-SL2 cell growth in a cell viability assay."}, "KMS-12-PE": {"test_system": "KMS-12-PE", "assay": "cells", "assay_type": "functional, cell-based, Homo sapiens", "details": "Homo sapiens, KMS-12-PE", "description": "SANGER: Inhibition of human KMS-12-PE cell growth in a cell viability assay."}, "KP-4": {"test_system": "KP-4", "assay": "cells", "assay_type": "functional, cell-based, Homo sapiens", "details": "Homo sapiens, KP-4", "description": "SANGER: Inhibition of human KP-4 cell growth in a cell viability assay."}, "KYSE-520 cell line": {"test_system": "KYSE-520 cell line", "assay": "cells", "assay_type": "functional, cell-based, Homo sapiens", "details": "Homo sapiens, KYSE-520", "description": "SANGER: Inhibition of human KYSE-520 cell growth in a cell viability assay."}, "LC4-1": {"test_system": "LC4-1", "assay": "cells", "assay_type": "functional, cell-based, Homo sapiens", "details": "Homo sapiens, LC4-1", "description": "SANGER: Inhibition of human LC4-1 cell growth in a cell viability assay."}, "LCLC-97TM1": {"test_system": "LCLC-97TM1", "assay": "cells", "assay_type": "functional, cell-based, Homo sapiens", "details": "Homo sapiens, LCLC-97TM1", "description": "SANGER: Inhibition of human LCLC-97TM1 cell growth in a cell viability assay."}, "LP-1": {"test_system": "LP-1", "assay": "cells", "assay_type": "functional, cell-based, Homo sapiens", "details": "Homo sapiens, LP-1", "description": "SANGER: Inhibition of human LP-1 cell growth in a cell viability assay."}, "LoVo": {"test_system": "LoVo", "assay": "cells", "assay_type": "functional, cell-based, Homo sapiens", "details": "Homo sapiens, LoVo", "description": "SANGER: Inhibition of human LoVo cell growth in a cell viability assay."}, "MCF7": {"test_system": "MCF7", "assay": "cells", "assay_type": "functional, cell-based, Homo sapiens", "details": "Homo sapiens, MCF7", "description": "SANGER: Inhibition of human MCF7 cell growth in a cell viability assay."}, "MONO-MAC-6": {"test_system": "MONO-MAC-6", "assay": "cells", "assay_type": "functional, cell-based, Homo sapiens", "details": "Homo sapiens, MONO-MAC-6", "description": "SANGER: Inhibition of human MONO-MAC-6 cell growth in a cell viability assay."}, "MRK-nu-1": {"test_system": "MRK-nu-1", "assay": "cells", "assay_type": "functional, cell-based, Homo sapiens", "details": "Homo sapiens, MRK-nu-1", "description": "SANGER: Inhibition of human MRK-nu-1 cell growth in a cell viability assay."}, "NCI-H1703": {"test_system": "NCI-H1703", "assay": "cells", "assay_type": "functional, cell-based, Homo sapiens", "details": "Homo sapiens, NCI-H1703", "description": "SANGER: Inhibition of human NCI-H1703 cell growth in a cell viability assay."}, "NCI-H1963": {"test_system": "NCI-H1963", "assay": "cells", "assay_type": "functional, cell-based, Homo sapiens", "details": "Homo sapiens, NCI-H1963", "description": "SANGER: Inhibition of human NCI-H1963 cell growth in a cell viability assay."}, "NCI-H2196": {"test_system": "NCI-H2196", "assay": "cells", "assay_type": "functional, cell-based, Homo sapiens", "details": "Homo sapiens, NCI-H2196", "description": "SANGER: Inhibition of human NCI-H2196 cell growth in a cell viability assay."}, "NCI-H460": {"test_system": "NCI-H460", "assay": "cells", "assay_type": "functional, cell-based, Homo sapiens", "details": "Homo sapiens, NCI-H460", "description": "SANGER: Inhibition of human NCI-H460 cell growth in a cell viability assay."}, "NCI-H522": {"test_system": "NCI-H522", "assay": "cells", "assay_type": "functional, cell-based, Homo sapiens", "details": "Homo sapiens, NCI-H522", "description": "SANGER: Inhibition of human NCI-H522 cell growth in a cell viability assay."}, "NUGC-3": {"test_system": "NUGC-3", "assay": "cells", "assay_type": "functional, cell-based, Homo sapiens", "details": "Homo sapiens, NUGC-3", "description": "SANGER: Inhibition of human NUGC-3 cell growth in a cell viability assay."}, "PANC-03-27": {"test_system": "PANC-03-27", "assay": "cells", "assay_type": "functional, cell-based, Homo sapiens", "details": "Homo sapiens, PANC-03-27", "description": "SANGER: Inhibition of human PANC-03-27 cell growth in a cell viability assay."}, "Panc1005": {"test_system": "Panc1005", "assay": "cells", "assay_type": "functional, cell-based, Homo sapiens", "details": "Homo sapiens, Panc1005", "description": "SANGER: Inhibition of human PANC-10-05 cell growth in a cell viability assay."}, "RL95-2": {"test_system": "RL95-2", "assay": "cells", "assay_type": "functional, cell-based", "details": "Homo sapiens", "description": "SANGER: Inhibition of human RL95-2 cell growth in a cell viability assay."}, "SK-MEL-24": {"test_system": "SK-MEL-24", "assay": "cells", "assay_type": "functional, cell-based, Homo sapiens", "details": "Homo sapiens, SK-MEL-24", "description": "SANGER: Inhibition of human SK-MEL-24 cell growth in a cell viability assay."}, "SK-N-AS": {"test_system": "SK-N-AS", "assay": "cells", "assay_type": "functional, cell-based, Homo sapiens", "details": "Homo sapiens, SK-N-AS", "description": "SANGER: Inhibition of human SK-N-AS cell growth in a cell viability assay."}, "SW837": {"test_system": "SW837", "assay": "cells", "assay_type": "functional, cell-based, Homo sapiens", "details": "Homo sapiens, SW837", "description": "SANGER: Inhibition of human SW837 cell growth in a cell viability assay."}, "T84": {"test_system": "T84", "assay": "cells", "assay_type": "functional, cell-based, Homo sapiens", "details": "Homo sapiens, T84", "description": "SANGER: Inhibition of human T84 cell growth in a cell viability assay."}, "TALL-1": {"test_system": "TALL-1", "assay": "cells", "assay_type": "functional, cell-based, Homo sapiens", "details": "Homo sapiens, TALL-1", "description": "SANGER: Inhibition of human TALL-1 cell growth in a cell viability assay."}, "BHY": {"test_system": "BHY", "assay": "cells", "assay_type": "functional, cell-based, Homo sapiens", "details": "Homo sapiens, BHY", "description": "SANGER: Inhibition of human BHY cell growth in a cell viability assay."}, "BOKU": {"test_system": "BOKU", "assay": "cells", "assay_type": "functional, cell-based, Homo sapiens", "details": "Homo sapiens, BOKU", "description": "SANGER: Inhibition of human BOKU cell growth in a cell viability assay."}, "BPH-1": {"test_system": "BPH-1", "assay": "cells", "assay_type": "functional, cell-based, Homo sapiens", "details": "Homo sapiens, BPH-1", "description": "SANGER: Inhibition of human BPH-1 cell growth in a cell viability assay."}, "BT-20": {"test_system": "BT-20", "assay": "cells", "assay_type": "functional, cell-based, Homo sapiens", "details": "Homo sapiens, BT-20", "description": "SANGER: Inhibition of human BT-20 cell growth in a cell viability assay."}, "CAL-72": {"test_system": "CAL-72", "assay": "cells", "assay_type": "functional, cell-based, Homo sapiens", "details": "Homo sapiens, CAL-72", "description": "SANGER: Inhibition of human CAL-72 cell growth in a cell viability assay."}, "U2OS": {"test_system": "U2OS", "assay": "cells", "assay_type": "functional, cell-based, Homo sapiens, U-2-OS", "details": "Homo sapiens, U2OS", "description": "SANGER: Inhibition of human U-2-OS cell growth in a cell viability assay."}, "U-251": {"test_system": "U-251", "assay": "cells", "assay_type": "functional, cell-based, Homo sapiens", "details": "Homo sapiens, U-251", "description": "SANGER: Inhibition of human U251 cell growth in a cell viability assay."}, "CHP-212": {"test_system": "CHP-212", "assay": "cells", "assay_type": "functional, cell-based, Homo sapiens", "details": "Homo sapiens, CHP-212", "description": "SANGER: Inhibition of human CHP-212 cell growth in a cell viability assay."}}}
{"molecule": "N#Cc1c(O)c2c(-c3ccc(-c4ccccc4O)cc3)csc2[nH]c1=O", "values": [{"measurement": "IC50", "setting": "COLO-792", "result": "> 1.02", "unit": "µM"}, {"measurement": "IC50", "setting": "COR-L279", "result": 0.253, "unit": "µM"}, {"measurement": "IC50", "setting": "CPC-N", "result": "> 1.02", "unit": "µM"}, {"measurement": "IC50", "setting": "ChaGo-K-1", "result": "> 1.02", "unit": "µM"}, {"measurement": "IC50", "setting": "DG-75", "result": "> 1.02", "unit": "µM"}, {"measurement": "IC50", "setting": "EB2", "result": 0.142, "unit": "µM"}, {"measurement": "IC50", "setting": "G-361", "result": 0.0881, "unit": "µM"}, {"measurement": "IC50", "setting": "HCC1599", "result": 0.278, "unit": "µM"}, {"measurement": "IC50", "setting": "HT-29", "result": "> 1.02", "unit": "µM"}, {"measurement": "IC50", "setting": "HT-3", "result": "> 1.02", "unit": "µM"}, {"measurement": "IC50", "setting": "HT55", "result": "> 1.02", "unit": "µM"}, {"measurement": "IC50", "setting": "HuP-T4", "result": "> 1.02", "unit": "µM"}, {"measurement": "IC50", "setting": "IGROV-1", "result": "> 1.02", "unit": "µM"}, {"measurement": "IC50", "setting": "IM-9", "result": "> 1.02", "unit": "µM"}, {"measurement": "IC50", "setting": "IST-SL2", "result": "> 1.02", "unit": "µM"}, {"measurement": "IC50", "setting": "KMS-12-PE", "result": 0.419, "unit": "µM"}, {"measurement": "IC50", "setting": "KP-4", "result": "> 1.02", "unit": "µM"}, {"measurement": "IC50", "setting": "KYSE-520 cell line", "result": "> 1.02", "unit": "µM"}, {"measurement": "IC50", "setting": "LC4-1", "result": 0.563, "unit": "µM"}, {"measurement": "IC50", "setting": "LCLC-97TM1", "result": "> 1.02", "unit": "µM"}, {"measurement": "IC50", "setting": "LP-1", "result": "> 1.02", "unit": "µM"}, {"measurement": "IC50", "setting": "LoVo", "result": "> 1.02", "unit": "µM"}, {"measurement": "IC50", "setting": "MCF7", "result": "> 1.02", "unit": "µM"}, {"measurement": "IC50", "setting": "MONO-MAC-6", "result": 0.114, "unit": "µM"}, {"measurement": "IC50", "setting": "MRK-nu-1", "result": 0.178, "unit": "µM"}, {"measurement": "IC50", "setting": "NCI-H1703", "result": "> 1.02", "unit": "µM"}, {"measurement": "IC50", "setting": "NCI-H1963", "result": "> 1.02", "unit": "µM"}, {"measurement": "IC50", "setting": "NCI-H2196", "result": 0.248, "unit": "µM"}, {"measurement": "IC50", "setting": "NCI-H460", "result": "> 1.02", "unit": "µM"}, {"measurement": "IC50", "setting": "NCI-H522", "result": "> 1.02", "unit": "µM"}, {"measurement": "IC50", "setting": "NUGC-3", "result": "> 1.02", "unit": "µM"}, {"measurement": "IC50", "setting": "PANC-03-27", "result": "> 1.02", "unit": "µM"}, {"measurement": "IC50", "setting": "Panc1005", "result": "> 1.02", "unit": "µM"}, {"measurement": "IC50", "setting": "RL95-2", "result": "> 1.02", "unit": "µM"}, {"measurement": "IC50", "setting": "SK-MEL-24", "result": "> 1.02", "unit": "µM"}, {"measurement": "IC50", "setting": "SK-N-AS", "result": "> 1.02", "unit": "µM"}, {"measurement": "IC50", "setting": "SW837", "result": "> 1.02", "unit": "µM"}, {"measurement": "IC50", "setting": "T84", "result": "> 1.02", "unit": "µM"}, {"measurement": "IC50", "setting": "TALL-1", "result": "> 1.02", "unit": "µM"}, {"measurement": "IC50", "setting": "BHY", "result": "> 1.02", "unit": "µM"}, {"measurement": "IC50", "setting": "BOKU", "result": "> 1.02", "unit": "µM"}, {"measurement": "IC50", "setting": "BPH-1", "result": "> 1.02", "unit": "µM"}, {"measurement": "IC50", "setting": "BT-20", "result": "> 1.02", "unit": "µM"}, {"measurement": "IC50", "setting": "CAL-72", "result": "> 1.02", "unit": "µM"}, {"measurement": "IC50", "setting": "U2OS", "result": "> 1.02", "unit": "µM"}, {"measurement": "IC50", "setting": "U-251", "result": "> 1.02", "unit": "µM"}, {"measurement": "IC50", "setting": "CHP-212", "result": "> 1.02", "unit": "µM"}]}
